According to ChEMBL document CHEMBL5316337, “Critical Role of Position 10 Residue in the Polymyxin Antimicrobial Activity” (J Med Chem, 2023):
In brackets after ≈: the same amount, converted by molar mass.

Tests used:
Type in all cases: functional
[1] = tested on: Acinetobacter baumannii; experiment: Antibacterial activity against Carbapenem-resistant Acinetobacter baumannii FADD1-AB034 clinical isolates assessed as reduction in bacterial growth by broth microdilution method
[2] = tested on: Enterobacter cloacae; experiment: Antibacterial activity against polymyxin-susceptible Enterobacter cloacae FADD1-EC006 clinical isolates assessed as reduction in bacterial growth by broth microdilution method
[3] = tested on: Pseudomonas aeruginosa; experiment: Antibacterial activity against polymyxin-susceptible Pseudomonas aeruginosa FADD1-PA038 clinical isolates assessed as reduction in bacterial growth by broth microdilution method
[4] = tested on: Klebsiella pneumoniae; experiment: Antibacterial activity against Carbapenem-resistant Klebsiella pneumoniae FADD1-KP022 clinical isolates assessed as reduction in bacterial growth by broth microdilution method
[5] = tested on: Acinetobacter baumannii; experiment: Antibacterial activity against Carbapenem-resistant Acinetobacter baumannii FADD1-AB030 clinical isolates assessed as reduction in bacterial growth by broth microdilution method
[6] = tested on: Pseudomonas aeruginosa; experiment: Antibacterial activity against polymyxin-susceptible Pseudomonas aeruginosa FADD1-PA025 clinical isolates assessed as reduction in bacterial growth by broth microdilution method
[7] = tested on: Pseudomonas aeruginosa; experiment: Antibacterial activity against Carbapenem-resistant Pseudomonas aeruginosa FADD1-PA022 clinical isolates assessed as reduction in bacterial growth by broth microdilution method
[8] = tested on: Klebsiella pneumoniae; experiment: Antibacterial activity against Carbapenem-resistant Klebsiella pneumoniae FADD1-KP032 clinical isolates assessed as reduction in bacterial growth by broth microdilution method
[9] = tested on: Klebsiella pneumoniae; experiment: Antibacterial activity against polymyxin-susceptible Klebsiella pneumoniae ATCC 700721 clinical isolates assessed as reduction in bacterial growth by broth microdilution method
[10] = tested on: Pseudomonas aeruginosa; experiment: Antibacterial activity against polymyxin-susceptible Pseudomonas aeruginosa ATCC 27853 clinical isolates assessed as reduction in bacterial growth by broth microdilution method
[11] = tested on: Klebsiella pneumoniae; experiment: Antibacterial activity against Carbapenem-resistant Klebsiella pneumoniae FADD1-KP065 clinical isolates assessed as reduction in bacterial growth by broth microdilution method
[12] = tested on: Pseudomonas aeruginosa; experiment: Antibacterial activity against Carbapenem-resistant Pseudomonas aeruginosa FADD1-PA001 clinical isolates assessed as reduction in bacterial growth by broth microdilution method
[13] = tested on: Klebsiella pneumoniae; experiment: Antibacterial activity against Carbapenem-resistant Klebsiella pneumoniae BM1 clinical isolates assessed as reduction in bacterial growth by broth microdilution method
[14] = tested on: Acinetobacter baumannii; experiment: Antibacterial activity against polymyxin-susceptible Acinetobacter baumannii ATCC 19606 clinical isolates assessed as reduction in bacterial growth by broth microdilution method
[15] = tested on: Enterobacter cloacae; experiment: Antibacterial activity against polymyxin-susceptible Enterobacter cloacae FADD1-EC003 clinical isolates assessed as reduction in bacterial growth by broth microdilution method
[16] = tested on: Enterobacter cloacae; experiment: Antibacterial activity against polymyxin-susceptible Enterobacter cloacae FADD1-EC001 clinical isolates assessed as reduction in bacterial growth by broth microdilution method
[17] = tested on: Acinetobacter baumannii; experiment: Antibacterial activity against polymyxin-susceptible Acinetobacter baumannii ATCC 17978 clinical isolates assessed as reduction in bacterial growth by broth microdilution method

Compound | MIC [1] | MIC [2] | MIC [3] | MIC [4] | MIC [5] | MIC [6] | MIC [7] | MIC [8] | MIC [9] | MIC [10] | MIC [11] | MIC [12] | MIC [13] | MIC [14] | MIC [15] | MIC [16] | MIC [17]
CC[C@H](C)CCCCC(=O)N[C@@H](CCN)C(=O)N[C@H](C(=O)N[C@@H](CCN)C(=O)N[C@H]1CCNC(=O)[C@H](Cc2c[nH]cn2)NC(=O)[C@H](CCN)NC(=O)[C@H](CCN)NC(=O)[C@H](CC(C)C)NC(=O)[C@@H](Cc2ccccc2)NC(=O)[C@H](CCN)NC1=O)[C@@H](C)O | 16 µg/mL (≈ 12.9 µM) | > 32 µg/mL | 16 µg/mL (≈ 12.9 µM) | 8 µg/mL (≈ 6.45 µM) | > 32 µg/mL | 8 µg/mL (≈ 6.45 µM) | 1 µg/mL (≈ 0.807 µM) | 16 µg/mL (≈ 12.9 µM) | 32 µg/mL (≈ 25.8 µM) | 8 µg/mL (≈ 6.45 µM) | 16 µg/mL (≈ 12.9 µM) | 32 µg/mL (≈ 25.8 µM) | > 32 µg/mL | 16 µg/mL (≈ 12.9 µM) | 16 µg/mL (≈ 12.9 µM) | 32 µg/mL (≈ 25.8 µM) | 4 µg/mL (≈ 3.23 µM)
CC[C@H](C)CCCCC(=O)N[C@@H](CCN)C(=O)N[C@H](C(=O)N[C@@H](CCN)C(=O)N[C@H]1CCNC(=O)[C@H](C(C)N=[N+]=[N-])NC(=O)[C@H](CCN)NC(=O)[C@H](CCN)NC(=O)[C@H](CC(C)C)NC(=O)[C@@H](Cc2ccccc2)NC(=O)[C@H](CCN)NC1=O)[C@@H](C)O (stereo partly drawn) | 2 µg/mL (≈ 1.63 µM) | 32 µg/mL (≈ 26 µM) | 4 µg/mL (≈ 3.26 µM) | 1 µg/mL (≈ 0.814 µM) | 0.5 µg/mL (≈ 0.407 µM) | 1 µg/mL (≈ 0.814 µM) | 1 µg/mL (≈ 0.814 µM) | 2 µg/mL (≈ 1.63 µM) | 4 µg/mL (≈ 3.26 µM) | 1 µg/mL (≈ 0.814 µM) | 1 µg/mL (≈ 0.814 µM) | 1 µg/mL (≈ 0.814 µM) | 2 µg/mL (≈ 1.63 µM) | 2 µg/mL (≈ 1.63 µM) | 4 µg/mL (≈ 3.26 µM) | 8 µg/mL (≈ 6.51 µM) | 2 µg/mL (≈ 1.63 µM)
CC[C@H](C)CCCCC(=O)N[C@@H](CCN)C(=O)N[C@H](C(=O)N[C@@H](CCN)C(=O)N[C@H]1CCNC(=O)[C@H](Cc2ccccc2)NC(=O)[C@H](CCN)NC(=O)[C@H](CCN)NC(=O)[C@H](CC(C)C)NC(=O)[C@@H](Cc2ccccc2)NC(=O)[C@H](CCN)NC1=O)[C@@H](C)O | 2 µg/mL (≈ 1.6 µM) | 4 µg/mL (≈ 3.2 µM) | 4 µg/mL (≈ 3.2 µM) | 1 µg/mL (≈ 0.8 µM) | 0.5 µg/mL (≈ 0.4 µM) | 2 µg/mL (≈ 1.6 µM) | 1 µg/mL (≈ 0.8 µM) | 1 µg/mL (≈ 0.8 µM) | 2 µg/mL (≈ 1.6 µM) | 1 µg/mL (≈ 0.8 µM) | 1 µg/mL (≈ 0.8 µM) | 1 µg/mL (≈ 0.8 µM) | 2 µg/mL (≈ 1.6 µM) | 2 µg/mL (≈ 1.6 µM) | 4 µg/mL (≈ 3.2 µM) | 4 µg/mL (≈ 3.2 µM) | 2 µg/mL (≈ 1.6 µM)
CC[C@H](C)CCCCC(=O)N[C@@H](CCN)C(=O)N[C@H](C(=O)N[C@@H](CCN)C(=O)N[C@H]1CCNC(=O)[C@H](C(C)(C)C)NC(=O)[C@H](CCN)NC(=O)[C@H](CCN)NC(=O)[C@H](CC(C)C)NC(=O)[C@@H](Cc2ccccc2)NC(=O)[C@H](CCN)NC1=O)[C@@H](C)O | 4 µg/mL (≈ 3.29 µM) | 8 µg/mL (≈ 6.58 µM) | 4 µg/mL (≈ 3.29 µM) | 1 µg/mL (≈ 0.823 µM) | 4 µg/mL (≈ 3.29 µM) | 2 µg/mL (≈ 1.65 µM) | 2 µg/mL (≈ 1.65 µM) | 2 µg/mL (≈ 1.65 µM) | 8 µg/mL (≈ 6.58 µM) | 2 µg/mL (≈ 1.65 µM) | 4 µg/mL (≈ 3.29 µM) | 2 µg/mL (≈ 1.65 µM) | 8 µg/mL (≈ 6.58 µM) | 8 µg/mL (≈ 6.58 µM) | 4 µg/mL (≈ 3.29 µM) | 8 µg/mL (≈ 6.58 µM) | 4 µg/mL (≈ 3.29 µM)
CC[C@H](C)CCCCC(=O)N[C@@H](CCN)C(=O)N[C@H](C(=O)N[C@@H](CCN)C(=O)N[C@H]1CCNC(=O)[C@H](CCN)NC(=O)[C@H](CCN)NC(=O)[C@H](CCN)NC(=O)[C@H](CC(C)C)NC(=O)[C@@H](Cc2ccccc2)NC(=O)[C@H](CCN)NC1=O)[C@@H](C)O | 16 µg/mL (≈ 13.3 µM) | > 32 µg/mL | > 32 µg/mL | 2 µg/mL (≈ 1.66 µM) | 8 µg/mL (≈ 6.65 µM) | > 32 µg/mL | > 32 µg/mL | 32 µg/mL (≈ 26.6 µM) | > 32 µg/mL | > 32 µg/mL | 4 µg/mL (≈ 3.33 µM) | > 32 µg/mL | > 32 µg/mL | 16 µg/mL (≈ 13.3 µM) | > 32 µg/mL | > 32 µg/mL | 16 µg/mL (≈ 13.3 µM)
CC[C@H](C)CCCCC(=O)N[C@@H](CCN)C(=O)N[C@H](C(=O)N[C@@H](CCN)C(=O)N[C@H]1CCNC(=O)[C@H](CCSC)NC(=O)[C@H](CCN)NC(=O)[C@H](CCN)NC(=O)[C@H](CC(C)C)NC(=O)[C@@H](Cc2ccccc2)NC(=O)[C@H](CCN)NC1=O)[C@@H](C)O | 4 µg/mL (≈ 3.24 µM) | 16 µg/mL (≈ 13 µM) | 2 µg/mL (≈ 1.62 µM) | 1 µg/mL (≈ 0.811 µM) | 2 µg/mL (≈ 1.62 µM) | 2 µg/mL (≈ 1.62 µM) | 1 µg/mL (≈ 0.811 µM) | 2 µg/mL (≈ 1.62 µM) | 4 µg/mL (≈ 3.24 µM) | 1 µg/mL (≈ 0.811 µM) | 1 µg/mL (≈ 0.811 µM) | 2 µg/mL (≈ 1.62 µM) | 2 µg/mL (≈ 1.62 µM) | 4 µg/mL (≈ 3.24 µM) | 4 µg/mL (≈ 3.24 µM) | 8 µg/mL (≈ 6.49 µM) | 4 µg/mL (≈ 3.24 µM)
CC[C@H](C)CCCCC(=O)N[C@@H](CCN)C(=O)N[C@H](C(=O)N[C@@H](CCN)C(=O)N[C@H]1CCNC(=O)[C@H](CCCCN)NC(=O)[C@H](CCN)NC(=O)[C@H](CCN)NC(=O)[C@H](CC(C)C)NC(=O)[C@@H](Cc2ccccc2)NC(=O)[C@H](CCN)NC1=O)[C@@H](C)O | 8 µg/mL (≈ 6.5 µM) | 32 µg/mL (≈ 26 µM) | > 32 µg/mL | 2 µg/mL (≈ 1.63 µM) | 32 µg/mL (≈ 26 µM) | > 32 µg/mL | 1 µg/mL (≈ 0.813 µM) | 32 µg/mL (≈ 26 µM) | > 32 µg/mL | > 32 µg/mL | 4 µg/mL (≈ 3.25 µM) | > 32 µg/mL | > 32 µg/mL | 32 µg/mL (≈ 26 µM) | 16 µg/mL (≈ 13 µM) | 32 µg/mL (≈ 26 µM) | 8 µg/mL (≈ 6.5 µM)
CC[C@H](C)CCCCC(=O)N[C@@H](CCN)C(=O)N[C@H](C(=O)N[C@@H](CCN)C(=O)N[C@H]1CCNC(=O)[C@H](CCC(=O)O)NC(=O)[C@H](CCN)NC(=O)[C@H](CCN)NC(=O)[C@H](CC(C)C)NC(=O)[C@@H](Cc2ccccc2)NC(=O)[C@H](CCN)NC1=O)[C@@H](C)O | > 32 µg/mL | > 32 µg/mL | > 32 µg/mL | 32 µg/mL (≈ 26 µM) | > 32 µg/mL | > 32 µg/mL | > 32 µg/mL | > 32 µg/mL | > 32 µg/mL | > 32 µg/mL | > 32 µg/mL | > 32 µg/mL | > 32 µg/mL | > 32 µg/mL | > 32 µg/mL | > 32 µg/mL | > 32 µg/mL
CC[C@H](C)CCCCC(=O)N[C@@H](CCN)C(=O)N[C@H](C(=O)N[C@@H](CCN)C(=O)N[C@H]1CCNC(=O)[C@H](CN)NC(=O)[C@H](CCN)NC(=O)[C@H](CCN)NC(=O)[C@H](CC(C)C)NC(=O)[C@@H](Cc2ccccc2)NC(=O)[C@H](CCN)NC1=O)[C@@H](C)O | 1 µg/mL (≈ 0.841 µM) | 16 µg/mL (≈ 13.5 µM) | 4 µg/mL (≈ 3.37 µM) | 1 µg/mL (≈ 0.841 µM) | 2 µg/mL (≈ 1.68 µM) | 2 µg/mL (≈ 1.68 µM) | 0.5 µg/mL (≈ 0.421 µM) | 2 µg/mL (≈ 1.68 µM) | > 32 µg/mL | 4 µg/mL (≈ 3.37 µM) | 1 µg/mL (≈ 0.841 µM) | 2 µg/mL (≈ 1.68 µM) | 4 µg/mL (≈ 3.37 µM) | 2 µg/mL (≈ 1.68 µM) | 4 µg/mL (≈ 3.37 µM) | 2 µg/mL (≈ 1.68 µM) | 1 µg/mL (≈ 0.841 µM)
